# Test results published in patent publication US20260166012A1 (MEDINNO PHARMACEUTICAL TECHNOLOGY (ZHUHAI) CO., LTD., priority 2023, published 2026).
# How the values were obtained:
# TYK2 = target: T1, TYK2 (Homo sapiens, UniProt P29597); assay: ADP-Glo kinase inhibition assay, TYK2
# T1 sequence (P29597 897-1187 limits assumed): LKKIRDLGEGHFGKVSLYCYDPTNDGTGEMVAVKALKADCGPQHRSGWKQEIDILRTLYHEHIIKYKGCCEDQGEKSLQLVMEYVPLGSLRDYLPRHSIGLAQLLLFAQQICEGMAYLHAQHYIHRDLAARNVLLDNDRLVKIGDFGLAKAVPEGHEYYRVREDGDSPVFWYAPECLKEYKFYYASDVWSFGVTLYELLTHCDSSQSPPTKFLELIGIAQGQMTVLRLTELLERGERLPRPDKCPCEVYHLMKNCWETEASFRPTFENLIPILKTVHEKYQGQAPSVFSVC
# Text: (§1) A drug screening system based on kinases JAK1, JAK2, JAK3, and TYK2 was used to detect the inhibitory ability of small molecule compounds on kinase activity. A kinase undergoes an enzymatic reaction with its substrates IRS1, IGF1Rtide, and Poly (4:1 Glu, Tyr), consuming ATP to produce ADP, wherein the ADP-Glo reagent and luminescence method were used to detect the amount of the product to reflect the activity of the kinase.
# (§2) For TYK2 inhibition activity testing, the starting concentration was 10 μM with 1:4 serial dilution. Test compounds were used at a starting concentration of 0.5 μM with 1:4 serial dilution.
# (§3) Transfer 4 μL of ADP-Glo reagent to the 384-well plate, which was centrifuged at 1000 rpm for 1 minute, and incubated at 25° C. for 40 minutes.
# (§4) Transfer 8 μL of the test solution to the 384-well plate, which was centrifuged at 1000 rpm for 1 minute, and incubated at 25° C. for 40 minutes.
# (§5) Read luminescence signals using a multimode microplate reader.
# (§6) [formula] • Negative Control: DMSO • Positive Control: Tofacitinib
# (§7) The following nonlinear regression equation was used to determine the compound's IC50(half-maximal inhibitory concentration). Data analysis was performed using GraphPad Prism 7.0 software.
# (§8) [formula] • X: Logarithm of compound concentration; and Y: Inhibition rate (% Inhibition)
# JAK2 = JAK2 (Homo sapiens, UniProt O60674); assay: ADP-Glo kinase inhibition assay, JAK2
# JAK2, sequence (O60674 826-1132 limits assumed): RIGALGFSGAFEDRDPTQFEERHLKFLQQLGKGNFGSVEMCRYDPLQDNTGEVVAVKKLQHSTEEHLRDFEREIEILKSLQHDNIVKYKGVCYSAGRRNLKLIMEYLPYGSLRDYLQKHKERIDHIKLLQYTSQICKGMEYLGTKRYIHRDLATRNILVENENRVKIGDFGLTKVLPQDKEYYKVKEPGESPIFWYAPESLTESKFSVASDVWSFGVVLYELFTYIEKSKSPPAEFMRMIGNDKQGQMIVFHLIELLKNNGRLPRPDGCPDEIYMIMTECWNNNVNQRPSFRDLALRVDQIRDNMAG
# Text: as §1, §2, §3, §4, §5, §6, §7, §8
# JAK1 = JAK1 (Homo sapiens, UniProt P23458); assay: ADP-Glo kinase inhibition assay, JAK1
# JAK1, sequence (P23458 850-1154 limits assumed): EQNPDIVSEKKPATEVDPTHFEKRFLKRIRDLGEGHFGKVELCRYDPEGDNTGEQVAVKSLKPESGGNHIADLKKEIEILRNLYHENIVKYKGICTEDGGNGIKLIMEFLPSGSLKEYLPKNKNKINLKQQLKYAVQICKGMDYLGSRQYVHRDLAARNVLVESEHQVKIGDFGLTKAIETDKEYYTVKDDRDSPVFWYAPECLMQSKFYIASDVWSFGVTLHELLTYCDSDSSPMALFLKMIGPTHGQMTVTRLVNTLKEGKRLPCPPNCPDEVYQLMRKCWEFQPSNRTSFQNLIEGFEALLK
# Text: as §1, §2, §3, §4, §5, §6, §7, §8
# JAK3 = JAK3 (Homo sapiens, UniProt P52333); assay: ADP-Glo kinase inhibition assay, JAK3
# JAK3, sequence (P52333 795-1124 limits assumed): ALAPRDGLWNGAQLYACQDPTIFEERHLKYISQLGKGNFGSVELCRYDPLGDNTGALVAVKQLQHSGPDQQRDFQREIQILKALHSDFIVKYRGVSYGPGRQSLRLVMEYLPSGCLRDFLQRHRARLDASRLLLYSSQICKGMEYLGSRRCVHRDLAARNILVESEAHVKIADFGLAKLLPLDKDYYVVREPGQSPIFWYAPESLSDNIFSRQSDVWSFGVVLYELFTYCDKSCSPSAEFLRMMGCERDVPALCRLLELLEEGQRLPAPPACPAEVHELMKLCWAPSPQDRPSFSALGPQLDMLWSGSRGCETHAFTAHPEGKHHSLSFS
# Text: as §1, §2, §3, §4, §5, §6, §7, §8
# [1] = tested on: itching caused by allergic dermatitis; conditions: dogs, cited from earlier work
Compound,IC50 (TYK2),IC50 (JAK2),IC50 (JAK1),IC50 (JAK3),experimental animals that alleviated the itching response by more than 50% ([1]; on the 7th day),time to relieve itching ([1]; oral 0.4-0.6 mg/kg twice a day)
[2H]C([2H])([2H])c1cc(O)c(F)cc1-c1ccc2c(-c3nc4c([nH]3)CN(CC(C)O)C4)n[nH]c2c1 (stereo in doubt) [Compound 28],6400 pM,50 pM,430 pM,1000 pM,,
"[2H]C([2H])([2H])c1cc(O)c(F)cc1-c1ccc2c(-c3nc4c([nH]3)CN(C(=O)NC[C@@H](C)O)C4)n[nH]c2c1 [Compound 1, (R)-2-(6-(5-Fluoro-4-hydroxy-2-(methyl-d3)phenyl)-1H-indazol-3-yl)-N-(2-hydroxypropyl)-4,6-dihydropyrrolo[3,4-d]imidazole-5(1H)-carboxamide]",800 pM,13 pM,96 pM,200 pM,,
"[2H]C([2H])([2H])c1cc(O)c(F)cc1-c1ccc2c(-c3nc4c([nH]3)CN(C(=O)C3CC3)C4)n[nH]c2c1 [Compound 2, Cyclopropyl (2-(6-(5-fluoro-4-hydroxy-2-(methyl-d3)phenyl)-1H-indazol-3-yl)-4,6-dihydropyrrolo[3,4-d]imidazol-5(1H)-yl) ketone]",1200 pM,17 pM,190 pM,280 pM,,
"[2H]C([2H])([2H])C([2H])([2H])c1cc(O)c(F)cc1-c1ccc2c(-c3nc4c([nH]3)CN(C(=O)N3CC[C@H](O)C3)C4)n[nH]c2c1 [Compound 3, (S)-(2-(6-(2-(Ethyl-d5)-5-fluoro-4-hydroxyphenyl)-1H-indazol-3-yl)-4,6-dihydropyrrolo[3,4-d]imidazol-5(1H)-yl) (3-hydroxypyrrolidin-1-yl) ketone methanesulfonate]",22 pM,15 pM,7.2 pM,44 pM,,
"[2H]C([2H])([2H])c1cc(O)c(F)cc1-c1ccc2c(-c3nc4c([nH]3)CN(C(=O)NC[C@H](C)O)C4)n[nH]c2c1 [Compound 4, (S)-2-(6-(5-Fluoro-4-hydroxy-2-(methyl-d3)phenyl)-1H-indazol-3-yl)-N-(2-hydroxypropyl)-4,6-dihydropyrrolo[3,4-d]imidazole-5(1H)-carboxamide]",1000 pM,15 pM,100 pM,260 pM,,
"[2H]C([2H])([2H])c1cc(O)c(F)cc1-c1ccc2c(-c3nc4c([nH]3)CN(C(=O)NCC(C)O)C4)n[nH]c2c1 (stereo not shown) [Compound 5, 2-(6-(5-Fluoro-4-hydroxy-2-(methyl-d3)phenyl)-1H-indazol-3-yl)-N-(2-hydroxypropyl)-4,6-dihydro-pyrrolo[3,4-d]imidazole-5(1H)-carboxamide]",1600 pM,10 pM,200 pM,300 pM,,
"[2H]C([2H])([2H])c1cc(O)c(F)cc1-c1ccc2c(-c3nc4c([nH]3)CN(C(=O)N3CC[C@H](O)C3)C4)n[nH]c2c1 [Compound 6, (S)-(2-(6-(5-Fluoro-4-hydroxy-2-(methyl-d3)phenyl)-1H-indazol-3-yl)-4,6-dihydropyrrolo[3,4-d]imidazole-5(1H)-yl)(3-hydroxypyrrolidin-1-yl)ketone]",320 pM,13 pM,86 pM,190 pM,,
"[2H]C([2H])([2H])c1cc(O)c(F)cc1-c1ccc2c(-c3nc4c([nH]3)CN(C(=O)NCCCO)C4)n[nH]c2c1 [Compound 7, 2-(6-(5-Fluoro-4-hydroxy-2-(methyl-d3)phenyl)-1H-indazol-3-yl)-N-(3-hydroxypropyl)-4,6-dihydropyrrolo[3,4-d]imidazole-5(1H)-carboxamide]",530 pM,14 pM,70 pM,250 pM,,
"[2H]C([2H])([2H])c1cc(O)c(F)cc1-c1ccc2c(-c3nc4c([nH]3)CN(C(=O)N3CC[C@@H](O)C3)C4)n[nH]c2c1 [Compound 8, (R)-(2-(6-(5-Fluoro-4-hydroxy-2-(methyl-d3)phenyl)-1H-indazol-3-yl)-4,6-dihydropyrrolo[3,4-d]imidazole-5(1H)-yl)(3-hydroxypyrrolidin-1-yl)ketone]",190 pM,4 pM,45 pM,160 pM,,
"[2H]C([2H])([2H])c1cc(O)c(F)cc1-c1ccc2c(-c3nc4c([nH]3)CN(C(=O)N(C)C)C4)n[nH]c2c1 [Compound 9, 2-(6-(5-Fluoro-4-hydroxy-2-(methyl-d3)phenyl)-1H-indazol-3-yl)-N,N-dimethyl-4,6-dihydropyrrolo[3,4-d]imidazole-5(1H)-carboxamide]",430 pM,8 pM,71 pM,320 pM,,
[2H]C([2H])([2H])c1cc(O)c(F)cc1-c1ccc2c(-c3nc4c([nH]3)CN(C(=O)N3CCOCC3)C4)n[nH]c2c1 [Compound 10],370 pM,9.7 pM,92 pM,300 pM,,
"[2H]C([2H])([2H])c1cc(O)c(F)cc1-c1ccc2c(-c3nc4c([nH]3)CN(C)C4)n[nH]c2c1 [Compound 12, 2-Fluoro-5-(methyl-d3)-4-(3-(5-methyl-1,4,5,6-tetrahydropyrrolo[3,4-d]imidazol-2-yl)-1H-indazol-6-yl)phenol]",,,1800 pM,,,
[2H]C([2H])([2H])c1cc(O)c(F)cc1-c1ccc2c(-c3nc4c([nH]3)CN(C(=O)NC)C4)n[nH]c2c1 [Compound 13],430 pM,12 pM,77 pM,220 pM,,
[2H]C([2H])([2H])c1cc(O)c(F)cc1-c1ccc2c(-c3nc4c([nH]3)CN(C(=O)OC)C4)n[nH]c2c1 [Compound 18],,610 pM,,,,
[2H]C([2H])([2H])c1cc(O)c(F)cc1-c1ccc2c(-c3nc4c([nH]3)CN(C(=O)N3CCC(O)CC3)C4)n[nH]c2c1 [Compound 19],300 pM,5 pM,32 pM,180 pM,,
[2H]C([2H])([2H])C([2H])([2H])c1cc(O)c(F)cc1-c1ccc2c(-c3nc4c([nH]3)CN(C(=O)N(C)C)C4)n[nH]c2c1 [Compound 32],300 pM,32 pM,25 pM,200 pM,,
[2H]C([2H])([2H])C([2H])([2H])c1cc(O)c(F)cc1-c1ccc2c(-c3nc4c([nH]3)CN(C(=O)N3CC[C@@H](O)C3)C4)n[nH]c2c1 [Compound 35],85 pM,8.8 pM,7.5 pM,95 pM,,
CNS(=O)(=O)C[C@H]1CC[C@H](N(C)c2ncnc3[nH]ccc23)CC1 [Olatinib],,,,,more than 70%,≤ 24 h
